From the supplement of paper PMC10290057 come the findings set out here.

Counter-ions that a name gives are not always drawn.
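Also: Luminescence-based viability readout, five doses per compound, normalized against on-plate DMSO and empty-well controls, followed by dose-response curve fitting for every drug.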

The test relates to HCT116. Put plainly: efficacy (fitted maximal change in viability relative to DMSO control); higher = less cytotoxic (negative = loss of viability). Particulars: 48 h.
As to `CCOC(=O)O[C@@]1(CC[C@H]2[C@@H]3CCC/4=C/C(=O)/C=C\[C@]4(C)[C@H]3[C@@H](O)C[C@]12C)C(=O)OCCl` [Loteprednol etabonate], the efficacy was -16%.

Take `CC[C@H](C)C(=O)O[C@H]1C[C@@H](C)\C=C2\C=C/[C@H](C)[C@H](CC[C@@H]3C[C@@H](O)CC(=O)O3)[C@@H]12` [Lovastatin]: the efficacy is -14.4%.

On to `CCCCC(F)(F)[C@@]1(O)CC[C@H]2[C@@H](CC(=O)[C@@H]2CCCCCCC(=O)O)O1` [Lubiprostone], for which the efficacy is -6.29%.

As to `CCCCN(CCCC)CC(O)c1cc(Cl)cc2c1-c1ccc(Cl)cc1/C2=C/c1ccc(Cl)cc1` (centres undefined) [Lumefantrine], the efficacy is -26.5%.

For `C=C(C)[C@@H]1CC[C@]2(C)CC[C@]3(C)[C@H](CC[C@@H]4[C@@]5(C)CC[C@H](O)C(C)(C)[C@@H]5CC[C@]43C)[C@@H]12` [Lupeol], the efficacy was -15.6%.

On to `CN1\C(=C([O-])/C2=CC=CC=C2[S+]1([O-])=O)C(=O)NC3=NC=C(C)S3` [MELOXICAM SODIUM], for which the efficacy was 9%.

Regarding `C1Cc2[nH]nc(-c3nn[nH]n3)c2C1` [MK-0354], the efficacy was -7.85%.

Consider `O=C1O[C@]2(CC[C@@H](C(=O)Nc3ccn(-c4ccccc4F)n3)CC2)c2cnccc21` [MK-0557], for which the efficacy was -11.9%.

Regarding `O=C(O)CCC1CCC(c2cc(F)ccc2F)([S+](=O)([O-])c2ccc(Cl)cc2)CC1` (centres undefined) [MK-0752], the efficacy was -19%.

In the case of `COc1ccc(CC2SC(=O)NC2=O)cc1C(=O)NCc1ccc(C(F)(F)F)cc1` (centres undefined) [MK-767], the efficacy is -17.2%.

With `CO[C@@H]1COCC[C@@H]1N[C@@H]1CC[C@@](C(=O)N2CCc3ncc(C(F)(F)F)cc3C2)(C(C)C)C1` [MK-0812], the efficacy is -11.1%.

In the case of `COc1ccc(CNC(=O)c2cc(-c3cncc(Cl)c3)cnc2-c2ccccn2)nc1OC` [MK-1064], the efficacy was 12.4%.

Take `Cn1c(-c2ccccc2C(F)(F)F)nnc1C12CCC(c3noc(C4CC(F)(F)C4)n3)(CC1)CC2` [MK-4101]: the efficacy was -26.2%.

Consider `O=C(O)Cn1nnc(-c2cc(N3CCC(Oc4cc(F)ccc4Br)CC3)no2)n1` [MK-8245], for which the efficacy is -19.9%.

Consider `CN1CCN(C(=O)c2ccc(-c3ccc4c(C=O)c(O)ccc4c3)s2)CC1` [MKC-3946], for which the efficacy was -13.9%.

With `O=[S+]([O-])(c1cccc2c(I)cccc12)N1CCCNCC1` [ML-7], the efficacy was -56.9%.

With `O=C(O)c1ccccc1-c1ccc(/C=c2\sc3nc4cc(Br)cnc4n3c2=O)o1` [ML-119], the efficacy was -9.89%.

Consider `COC1=CC=C(C=C1)C2CC(=N/N2C3=CC=C(C=C3)[S+](N)([O-])=O)\C4=CC=CC=C4` (centres undefined) [ML-141], for which the efficacy was -60%.

As for `[2H]C([2H])(Nc1nc(-c2ccccc2C([2H])(C([2H])([2H])[2H])C([2H])([2H])[2H])ncc1C)c1ccc(-n2ccnn2)cc1` [ML-323], the efficacy was -36.2%.

Turning to `COc1ccc(-c2cnc3c(-c4cccc5ncccc45)cnn3c2)cc1` [ML-347], the efficacy was 9.54%.

For the compound `COc1c(Cl)cc2c([nH]c3cnccc32)c1NC(=O)c1cccnc1C` [MLN-120B], the efficacy was -95.3%.

Turning to `CCCN[S+](=O)([O-])Nc1ncnc(OCCOc2ncc(Br)cn2)c1-c1ccc(Br)cc1` [Macitentan], the efficacy is -63.7%.

`CC(C)OC(=O)C(C(=O)OC(C)C)=C1S\C=C/S1` [Malotilate]: the efficacy was -26.9%.

Take `COC(=O)C1=C(C)NC(C)=C(C(=O)OCCN2CCN(C(c3ccccc3)c3ccccc3)CC2)C1c1cccc([N+](=O)[O-])c1.Cl.Cl` (centres undefined) [Manidipine]: the efficacy was -75%.

In the case of `OC[C@@H](O)[C@@H](O)[C@H](O)[C@@H](O)CO` [Mannitol], the efficacy amounted to 13%.

In the case of `Cc1nnc(C(C)C)n1C1CC2CCC(C1)N2CC[C@H](NC(=O)C1CCC(F)(F)CC1)c1ccccc1` (some centres undefined) [Maraviroc], the efficacy was -6.73%.

In the case of `COC(=O)Nc1nc2cc(C(=O)c3ccccc3)ccc2[nH]1` [Mebendazole], the efficacy is -65.1%.

With `CCOC(=O)c1c(C)n(C)c2ccc(O)cc12` [Mecarbinate], the efficacy is -21.6%.

For the compound `C[C@H]1C[C@@H]2[C@H](CC[C@@]3(C)[C@H]2CC[C@]3(OC(C)=O)C(C)=O)[C@@]\4(C)CCC(=O)\C=C14` [Medroxyprogesterone acetate], the efficacy was -13.3%.

For the compound `CC(=O)O[C@@]1(CC[C@H]2[C@@H]3\C=C(C)/C4=C/C(=O)CC[C@]4(C)[C@H]3CC[C@]12C)C(C)=O` [Megestrol acetate], the efficacy was -13.4%.

Consider `COc1ccc2[nH]cc(CCNC(C)=O)c2c1` [Melatonin], for which the efficacy was -10.4%.

Regarding `N[C@@H](Cc1ccc(N(CCCl)CCCl)cc1)C(=O)O` [Melphalan], the efficacy is -56.5%.

Regarding `CC1=CC(=O)c2ccccc2C1=O` [Menadione], the efficacy is -10.7%.

Turning to `O=S(=O)([O-])CCS` [Mesna], the efficacy was -8.13%.

Turning to `C#C[C@]1(O)CC[C@H]2[C@@H]3CCc4cc(OC)ccc4[C@H]3CC[C@@]21C` [Mestranol], the efficacy is -33.5%.

Take `CSCC[C@@H](NC(=O)[C@@H](Cc1ccccc1)NC(=O)CNC(=O)CNC(=O)[C@@H](N)Cc1ccc(O)cc1)C(=O)O` [Metenkephalin]: the efficacy is -81.4%.

As for `CN(C)C(=N)NC(=N)N` [Metformin], the efficacy is -21.8%.

Take `CN(C)[C@H]\1[C@@H]2[C@@H](O)[C@@H]\3C(=C)C4=C(C(=CC=C4)O)C(=O)C3=C(\O)[C@@]2(O)C(=O)\C(=C1O)C(N)=O` [Methacycline hydrochloride]: the efficacy was -9.07%.

For the compound `C[C@](N)(Cc1ccc(O)c(O)c1)C(=O)O` [Methyldopa], the efficacy was -16.9%.

In the case of `CN(C)c1ccc2nc3ccc(N(C)C)cc3[s+]c2c1.[Cl-]` [Methylene blue], the efficacy is -96.6%.

Take `C[C@H]1C[C@H]2[C@@H]3CC[C@](O)(C(=O)CO)[C@@]3(C)C[C@H](O)[C@@H]2[C@@]\4(C)/C=C\C(=O)\C=C14` [Methylprednisolone]: the efficacy came out at 20%.

For `CC#C[C@]1(O)CC[C@H]2[C@@H]/3CCC/4=C/C(=O)CCC4=C3[C@H](C[C@]12C)C5=CC=C(C=C5)N(C)C` [Mifepristone], the efficacy is -73.4%.

In the case of `C\C1=C(\C=C(\C#N)C(=O)N1)C2=CC=NC=C2` [Milrinone], the efficacy was -8.82%.

`O=C(c1ccc(N[S+](=O)([O-])c2cccc3cccnc23)cc1)N1CCN(CC2CC2)CC1` [Mitapivat]: the efficacy is -18.2%.

As to `CO[C@@]12[C@H](COC(N)=O)C/3=C(N1C[C@@H]4N[C@H]24)/C(=O)/C(=C(N)\C3=O)C` [Mitomycin C], the efficacy was -11.2%.

Turning to `Clc1ccc(C(c2ccccc2Cl)C(Cl)Cl)cc1` (centres undefined) [Mitotane], the efficacy is -92.3%.

For `NC(=O)c1ncn([C@@H]2O[C@H](CO)[C@@H](O)[C@H]2O)c1O` [Mizoribine], the efficacy came to 18%.

Take `O=C\1N(N\C=C1[N]2C=CN=N2)C3=NC=NC(=C3)N4CCOCC4` [Molidustat]: the efficacy was -58.6%.

Take `CCOC(=O)C/1=C(C)/NC(=S)NC1C2=CC=CC(=C2)O` (centres undefined) [Monastrol]: the efficacy was -52.1%.

On to `CCOc1cc(N)c(Cl)cc1C(=O)NCC1CN(Cc2ccc(F)cc2)CCO1` (centres undefined) [Mosapride citrate], for which the efficacy is -28.4%.

Regarding `CC1(C)CNc2cc(NC(=O)c3cccnc3NCc3ccncc3)ccc21` [Motesanib], the efficacy is 10.7%.

For the compound `COc1c(N2C[C@@H]3CCCN[C@@H]3C2)c(F)cc2c(=O)c(C(=O)O)cn(C3CC3)c12.Cl.O` [Moxifloxacin hydrochloride], the efficacy was -9.48%.

Consider `OC1=CC2=C(C(=C1)O)C(=O)\C(=C(/O2)C3=CC(=C(O)C(=C3)O)O)O` [Myricetin], for which the efficacy was -26.3%.

Regarding `COc1ccc(C(=O)N2CCN(C(=O)/C=C/c3ccc(Br)cc3)CC2)cc1` [NIBR-189], the efficacy is -15.1%.

For `NC(=O)c1cc(F)cc2c1C(=O)N(C1CCN(C3CCC(F)(F)CC3)CC1)C2` [NMS-P118], the efficacy is -18.7%.

Regarding `Oc1nc(-c2ccc(C(F)(F)F)cc2)nc2c1CSCC2` [NVP-XAV-939], the efficacy was -13.5%.

For `CC(C)NC(=O)N1CC[C@@H](C1)NC/2=N/C3=C(C=CC(=C3)F)N(CC(F)F)C4=C2C=C(Cl)C=C4` [NVS-PAK1-1], the efficacy is -21.2%.

Consider `N=C(N)Nc1ccc(C(=O)Oc2ccc3cc(C(=N)N)ccc3c2)cc1` [Nafamostat mesilate], for which the efficacy was -24.8%.

For the compound `CC(C)(C)C(=O)CN1C(=O)[C@H](NC(=O)Nc2cccc(C(=O)O)c2)CN(C2CCCCC2)c2ccccc21` [Nastorazepide], the efficacy is -4.67%.

`CC(C)C1CCC(C(=O)N[C@H](Cc2ccccc2)C(=O)O)CC1` (some centres undefined) [Nateglinide]: the efficacy was -11%.

Turning to `CN1C(=O)N[C@H](Cc2c[nH]c3c(Cl)cccc23)C1=O` [Necrostatin 2], the efficacy worked out at 15%.

With `CN1C(=O)C(Cc2c[nH]c3ccccc23)NC1=S` (centres undefined) [Necrostatin-1], the efficacy is -7.49%.

Regarding `Cc1cccc(C)c1NC(=O)CN1CCCC1=O` [Nefiracetam], the efficacy was -20.6%.

Take `NCC/1=C/NC(=S)N1[C@H]2CCC3=C(F)C=C(F)C=C3C2` [Nepicastat hydrochloride]: the efficacy was -46.6%.

For the compound `CNC(=O)c1c(-c2ccc(F)cc2)oc2cc(N(CCO)[S+](C)(=O)[O-])c(C3CC3)cc12` [Nesbuvir], the efficacy was -8.31%.

For the compound `CN1C(=O)/C=C(/NCCN(CCO)CCCC2=CC=C(C=C2)[N+]([O-])=O)N(C)C1=O` [Nifekalant], the efficacy is -10%.

Consider `CC1(C)NC(=O)N(c2ccc([N+](=O)[O-])c(C(F)(F)F)c2)C1=O` [Nilutamide], for which the efficacy was -35.5%.

With `C[S+](=O)([O-])Nc1ccc([N+](=O)[O-])cc1Oc1ccccc1` [Nimesulide], the efficacy is -15.6%.

For the compound `O=[N+]([O-])c1cncn1CCN1CCOCC1` [Nimorazole], the efficacy is -10.3%.
